The source of these data is US20110104361A1, “TASTE-IMPROVING AGENT FOR POTASSIUM SALT OR POTASSIUM SALT-CONTAINING FOOD OR DRINK” (OGAWA & CO., LTD., priority 2008, published 2011).

Molecules are shown by their SMILES.

The nature of assay [1]: Organoleptic evaluation, potassium chloride aqueous solution (Test Example 5). To be noted: 0.75 wt % KCl aqueous solution; addition quinic acid-containing composition 5.0 ppm, spilanthol 0.1 ppm, shallot extract 10.0 ppm; panel of 10 experts vs control without agent. Here is the method:
The taste-improving agents obtained in Production Examples 1-5 were used to examine the taste-improving effects on potassium salts or potassium salt-containing foods or drinks. [table] To a 0.75 wt % potassium chloride aqueous solution there were added each of the agents for improving taste of Production Examples 1-5, so that the content of the quinic acid-containing compositions (Production Examples 1 and 2), spilanthol (Production Examples 3 and 4) or shallot extract (Production Example 5) in the potassium chloride aqueous solution was as listed in Table 2, and an organoleptic evaluation was conducted by a panel of 10 experts based on the rating scale shown in Table 1, with a product containing no agent for improving taste according to the invention, as the control.

Assay [2] is described as follows: Organoleptic evaluation, ramen soup (Test Example 11). The note with it: addition quinic acid-containing composition 5.0 ppm, spilanthol 0.1 ppm, shallot extract 10.0 ppm, panel of 10 experts vs control. Here is the method:
The taste-improving agents obtained in Production Examples 1-5 were used to examine the taste-improving effects on potassium salts or potassium salt-containing foods or drinks. [table] To reduced-sodium ramen soup having the following formulation 4 there were added each of the agents for improving taste of Production Examples 2, 4 and 5 so that the contents of the quinic acid-containing composition (Production Example 2), purified spilanthol (Production Example 4) and shallot extract (Production Example 5) in the soup were as listed in Table 8, and an organoleptic evaluation was conducted by a panel of 10 experts based on the rating scale shown in Table 1, with a product containing no agent for improving taste according to the invention, as the control. [table] A 20 g portion of the powder above was dissolved in 500 g of hot water.

The nature of assay [3]: Organoleptic evaluation, cream stew (second Test Example 13). The note with it: addition quinic acid-containing composition 5.0 ppm, spilanthol 0.1 ppm, shallot extract 10.0 ppm, panel of 10 experts vs control. Here is the method: (§1) The taste-improving agents obtained in Production Examples 1-5 were used to examine the taste-improving effects on potassium salts or potassium salt-containing foods or drinks. [table] To reduced-sodium cream stew having the following formulation 7 there were added each of the agents for improving taste of Production Examples 1, 2, 4 and 5 so that the contents of the quinic acid-containing compositions (Production Examples 1 and 2), purified spilanthol (Production Example 4) and shallot extract (Production Example 5) in the stew were as listed in Table 11, and an organoleptic evaluation was conducted by a panel of 10 experts based on the rating scale shown in Table 1, with a product containing no agent for improving taste according to the invention, as the control. [table]

Assay [4] can be described thus: Organoleptic evaluation, meat sauce (Test Example 14). To be noted: addition quinic acid-containing composition 5.0 ppm, spilanthol 0.1 ppm, shallot extract 10.0 ppm, panel of 10 experts vs control. Here is the method:
as §1, with “meat sauce” for “cream stew”, “8” for “7”, “meat sauce” for “stew”, “12,” for “11,”

On to `CC=CC=CCCC=CC(=O)NCC(C)C` [Purified spilanthol (Prod. Ex. 4), N-isobutyl-2,6,8-decatrieneamide], for which the Metallic taste entry in assay [1] was “++ (Noticeable effect (at least 5/10 panelists noticed an effect compared to the control))”. Besides, in assay [2], the Chicken flavor result is reported as “− (No effect/change (fewer than 3/10 panelists noticed an effect compared to the control))”, the Salty taste result was “+ (Somewhat noticeable effect (at least 3/10 panelists noticed an effect compared to the control))” and the Unpleasant taste result is recorded as “+ (Somewhat noticeable effect (at least 3/10 panelists noticed an effect compared to the control))”. Besides, in assay [3], the Milk flavor entry was “− (No effect/change (fewer than 3/10 panelists noticed an effect compared to the control))”, the Sweet taste entry is “− (No effect/change (fewer than 3/10 panelists noticed an effect compared to the control))” and the Unpleasant taste result was “+ (Somewhat noticeable effect (at least 3/10 panelists noticed an effect compared to the control))”. For the same compound, in assay [4], the Meat flavor result is reported as “− (No effect/change (fewer than 3/10 panelists noticed an effect compared to the control))”, the Metallic taste entry was “+ (Somewhat noticeable effect (at least 3/10 panelists noticed an effect compared to the control))” and the Tomato flavor entry is given as “− (No effect/change (fewer than 3/10 panelists noticed an effect compared to the control))”.
